{
  "source": "the NIST ThermoML archive (doi:10.1021/acs.jced.7b00039)",
  "key": {"[1]": {"conditions": "100 kPa, Liquid; for viscosity: Cone and plate viscometry; for mass density: Vibrating tube method"}, "[2]": {"test": "wn = mass fraction of the nth substance listed", "conditions": "100 kPa, Liquid; for viscosity: Cone and plate viscometry; for mass density: Vibrating tube method"}},
  "note": "Numbers after ± are expanded uncertainties.",
  "data": [
    {"compound": "CC(CC(C)(C)C)CP(=O)([O-])CC(C)CC(C)(C)C.CCCCCCCCCCCCCC[P+](CCCCCC)(CCCCCC)CCCCCC", "values": [
      {"measurement": "viscosity", "setting": "[1]; 298 K", "result": "1023 ± 120", "unit": "mPa·s"},
      {"measurement": "mass density", "setting": "[1]; 298 K", "result": "883.68 ± 9.7", "unit": "kg/m3"},
      {"measurement": "viscosity", "setting": "[1]; 310 K", "result": "521 ± 59", "unit": "mPa·s"},
      {"measurement": "mass density", "setting": "[1]; 310 K", "result": "876.52 ± 9.6", "unit": "kg/m3"},
      {"measurement": "viscosity", "setting": "[1]; 318 K", "result": "345 ± 38", "unit": "mPa·s"},
      {"measurement": "mass density", "setting": "[1]; 318 K", "result": "871.79 ± 9.5", "unit": "kg/m3"}
    ]},
    {"compound": "CC(CC(C)(C)C)CP(=O)([O-])CC(C)CC(C)(C)C.CCCCCCCCCCCCCC[P+](CCCCCC)(CCCCCC)CCCCCC", "note": "+ O", "values": [
      {"measurement": "viscosity", "setting": "[2]; 298 K, w2 = 0.00047", "result": "1023 ± 120", "unit": "mPa·s"},
      {"measurement": "viscosity", "setting": "[2]; 298 K, w2 = 0.00122", "result": "996 ± 120", "unit": "mPa·s"},
      {"measurement": "viscosity", "setting": "[2]; 298 K, w2 = 0.00289", "result": "924 ± 110", "unit": "mPa·s"},
      {"measurement": "viscosity", "setting": "[2]; 298 K, w2 = 0.00582", "result": "796 ± 92", "unit": "mPa·s"},
      {"measurement": "viscosity", "setting": "[2]; 298 K, w2 = 0.0147", "result": "646 ± 74", "unit": "mPa·s"},
      {"measurement": "viscosity", "setting": "[2]; 298 K, w2 = 0.0317", "result": "431 ± 48", "unit": "mPa·s"},
      {"measurement": "viscosity", "setting": "[2]; 298 K, w2 = 0.081", "result": "261 ± 29", "unit": "mPa·s"},
      {"measurement": "viscosity", "setting": "[2]; 298 K, w2 = 0.154", "result": "142 ± 15", "unit": "mPa·s"},
      {"measurement": "viscosity", "setting": "[2]; 298 K, w2 = 0.156", "result": "142 ± 15", "unit": "mPa·s"},
      {"measurement": "mass density", "setting": "[2]; 298 K, w2 = 0.00047", "result": "884.09 ± 9.7", "unit": "kg/m3"},
      {"measurement": "mass density", "setting": "[2]; 298 K, w2 = 0.00122", "result": "884.98 ± 9.7", "unit": "kg/m3"},
      {"measurement": "mass density", "setting": "[2]; 298 K, w2 = 0.00289", "result": "886.11 ± 9.7", "unit": "kg/m3"},
      {"measurement": "mass density", "setting": "[2]; 298 K, w2 = 0.00582", "result": "886.78 ± 9.7", "unit": "kg/m3"},
      {"measurement": "mass density", "setting": "[2]; 298 K, w2 = 0.0147", "result": "887.75 ± 9.7", "unit": "kg/m3"},
      {"measurement": "mass density", "setting": "[2]; 298 K, w2 = 0.0317", "result": "890.65 ± 9.7", "unit": "kg/m3"},
      {"measurement": "mass density", "setting": "[2]; 298 K, w2 = 0.081", "result": "898.06 ± 9.6", "unit": "kg/m3"},
      {"measurement": "mass density", "setting": "[2]; 298 K, w2 = 0.156", "result": "909.07 ± 9.6", "unit": "kg/m3"},
      {"measurement": "viscosity", "setting": "[2]; 310 K, w2 = 0.00047", "result": "521 ± 59", "unit": "mPa·s"},
      {"measurement": "viscosity", "setting": "[2]; 310 K, w2 = 0.00122", "result": "512 ± 58", "unit": "mPa·s"},
      {"measurement": "viscosity", "setting": "[2]; 310 K, w2 = 0.00289", "result": "476 ± 53", "unit": "mPa·s"},
      {"measurement": "viscosity", "setting": "[2]; 310 K, w2 = 0.00582", "result": "401 ± 45", "unit": "mPa·s"},
      {"measurement": "viscosity", "setting": "[2]; 310 K, w2 = 0.0147", "result": "321 ± 35", "unit": "mPa·s"},
      {"measurement": "viscosity", "setting": "[2]; 310 K, w2 = 0.0317", "result": "211 ± 23", "unit": "mPa·s"},
      {"measurement": "viscosity", "setting": "[2]; 310 K, w2 = 0.081", "result": "125 ± 13", "unit": "mPa·s"},
      {"measurement": "viscosity", "setting": "[2]; 310 K, w2 = 0.146", "result": "79.7 ± 8.6", "unit": "mPa·s"},
      {"measurement": "mass density", "setting": "[2]; 310 K, w2 = 0.00047", "result": "876.93 ± 9.6", "unit": "kg/m3"},
      {"measurement": "mass density", "setting": "[2]; 310 K, w2 = 0.00122", "result": "877.82 ± 9.6", "unit": "kg/m3"},
      {"measurement": "mass density", "setting": "[2]; 310 K, w2 = 0.00289", "result": "878.88 ± 9.6", "unit": "kg/m3"},
      {"measurement": "mass density", "setting": "[2]; 310 K, w2 = 0.00582", "result": "879.48 ± 9.6", "unit": "kg/m3"},
      {"measurement": "mass density", "setting": "[2]; 310 K, w2 = 0.0147", "result": "880.36 ± 9.6", "unit": "kg/m3"},
      {"measurement": "mass density", "setting": "[2]; 310 K, w2 = 0.0317", "result": "883.04 ± 9.6", "unit": "kg/m3"},
      {"measurement": "mass density", "setting": "[2]; 310 K, w2 = 0.081", "result": "890.2 ± 9.5", "unit": "kg/m3"},
      {"measurement": "mass density", "setting": "[2]; 310 K, w2 = 0.146", "result": "900.11 ± 9.5", "unit": "kg/m3"},
      {"measurement": "viscosity", "setting": "[2]; 318 K, w2 = 0.00047", "result": "345 ± 38", "unit": "mPa·s"},
      {"measurement": "viscosity", "setting": "[2]; 318 K, w2 = 0.00122", "result": "337 ± 37", "unit": "mPa·s"},
      {"measurement": "viscosity", "setting": "[2]; 318 K, w2 = 0.00289", "result": "313 ± 34", "unit": "mPa·s"},
      {"measurement": "viscosity", "setting": "[2]; 318 K, w2 = 0.00582", "result": "263 ± 28", "unit": "mPa·s"},
      {"measurement": "viscosity", "setting": "[2]; 318 K, w2 = 0.0147", "result": "210 ± 23", "unit": "mPa·s"},
      {"measurement": "viscosity", "setting": "[2]; 318 K, w2 = 0.0317", "result": "137 ± 14", "unit": "mPa·s"},
      {"measurement": "viscosity", "setting": "[2]; 318 K, w2 = 0.081", "result": "81.6 ± 8.6", "unit": "mPa·s"},
      {"measurement": "viscosity", "setting": "[2]; 318 K, w2 = 0.142", "result": "55.6 ± 6", "unit": "mPa·s"},
      {"measurement": "mass density", "setting": "[2]; 318 K, w2 = 0.00047", "result": "872.2 ± 9.5", "unit": "kg/m3"},
      {"measurement": "mass density", "setting": "[2]; 318 K, w2 = 0.00122", "result": "873.07 ± 9.5", "unit": "kg/m3"},
      {"measurement": "mass density", "setting": "[2]; 318 K, w2 = 0.00289", "result": "874.07 ± 9.5", "unit": "kg/m3"},
      {"measurement": "mass density", "setting": "[2]; 318 K, w2 = 0.00582", "result": "874.64 ± 9.5", "unit": "kg/m3"},
      {"measurement": "mass density", "setting": "[2]; 318 K, w2 = 0.0147", "result": "875.46 ± 9.5", "unit": "kg/m3"},
      {"measurement": "mass density", "setting": "[2]; 318 K, w2 = 0.0317", "result": "878.08 ± 9.5", "unit": "kg/m3"},
      {"measurement": "mass density", "setting": "[2]; 318 K, w2 = 0.081", "result": "884.95 ± 9.4", "unit": "kg/m3"},
      {"measurement": "mass density", "setting": "[2]; 318 K, w2 = 0.142", "result": "893.78 ± 9.4", "unit": "kg/m3"}
    ]},
    {"compound": "O", "note": "[water]", "values": [
      {"measurement": "viscosity", "setting": "[1]; 298 K", "result": "0.89 ± 0.089", "unit": "mPa·s"},
      {"measurement": "viscosity", "setting": "[1]; 310 K", "result": "0.686 ± 0.069", "unit": "mPa·s"},
      {"measurement": "mass density", "setting": "[1]; 310 K", "result": "993.35 ± 9.9", "unit": "kg/m3"},
      {"measurement": "viscosity", "setting": "[1]; 318 K", "result": "0.581 ± 0.058", "unit": "mPa·s"}
    ]},
    {"compound": "O", "note": "[water] + CC(CC(C)(C)C)CP(=O)([O-])CC(C)CC(C)(C)C.CCCCCCCCCCCCCC[P+](CCCCCC)(CCCCCC)CCCCCC", "values": [
      {"measurement": "viscosity", "setting": "[2]; 298 K, w1 = 1", "result": "0.89 ± 0.089", "unit": "mPa·s"},
      {"measurement": "viscosity", "setting": "[2]; 310 K, w1 = 1", "result": "0.686 ± 0.069", "unit": "mPa·s"},
      {"measurement": "mass density", "setting": "[2]; 310 K, w1 = 1", "result": "993.35 ± 9.9", "unit": "kg/m3"},
      {"measurement": "viscosity", "setting": "[2]; 318 K, w1 = 1", "result": "0.581 ± 0.058", "unit": "mPa·s"}
    ]}
  ]
}
